Laboratory results: PubChem BioAssay AID1259407 (Chemical Carcinogenesis Research Information System (CCRIS), 2018)
Calls of active or inactive are those of the source. No rule for the calls is given here.

System: CCRIS mutagenicity, Ames/micronucleus/aberration tests
Assay: CCRIS mutagenicity studies

`Oc1cccc2cccnc12` was tested, and the mutagenic call (End Point: IN VITRO CHROMOSOMAL ABERRATIONS, Test System: CHL CELLS, Metabolic Activation: RAT, LIVER, S-9, SODIUM PHENOBARBITAL AND 5,6-BENZOFLAVONE) was “active; positive (structural changes)”, the mutagenic call (End Point: IN VITRO CHROMOSOMAL ABERRATIONS, Test System: CHO-LB CELLS, Metabolic Activation: NONE) was “inactive; negative” and the mutagenic call (End Point: IN VITRO CHROMOSOMAL ABERRATIONS, Test System: CHO-LB CELLS, Metabolic Activation: RAT, LIVER, S-9, AROCLOR 1254) was “active; positive”. The mutagenic call (End Point: IN VITRO CHROMOSOMAL ABERRATIONS, Test System: CHO-WBL CELLS, Metabolic Activation: RAT, LIVER, S-9, PHENOBARBITAL AND BETA-NAPHTHOFLAVONE) was “active; positive”, the mutagenic call (Test System: AMES SALMONELLA TYPHIMURIUM, Strain/Indicator: TA97, Metabolic Activation: HAMSTER, LIVER, S-9, AROCLOR 1254 (10%), Method: PREINCUBATION) was “active; positive” and the mutagenic call (Test System: AMES SALMONELLA TYPHIMURIUM, Strain/Indicator: TA97, Metabolic Activation: NONE, Method: PREINCUBATION) was “inactive; negative”. The mutagenic call (Test System: AMES SALMONELLA TYPHIMURIUM, Strain/Indicator: TA97, Metabolic Activation: RAT, LIVER, S-9, AROCLOR 1254 (10%), Method: PREINCUBATION) was “active; positive”, the mutagenic call (Test System: AMES SALMONELLA TYPHIMURIUM, Strain/Indicator: TA98, Metabolic Activation: HAMSTER, LIVER, S-9, AROCLOR 1254 (10%), Method: PREINCUBATION) was “inactive; negative” and the mutagenic call (Test System: AMES SALMONELLA TYPHIMURIUM, Strain/Indicator: TA98, Metabolic Activation: HAMSTER, LIVER, S-9, AROCLOR 1254 (30%), Method: PREINCUBATION) was “inactive; negative”. The mutagenic call (Test System: AMES SALMONELLA TYPHIMURIUM, Strain/Indicator: TA98, Metabolic Activation: NONE, Method: FLUCTUATION (MICROTITER)) was “inactive; negative”, the mutagenic call (Test System: AMES SALMONELLA TYPHIMURIUM, Strain/Indicator: TA98, Metabolic Activation: NONE, Method: PREINCUBATION) was “inactive; negative” and the mutagenic call (Test System: AMES SALMONELLA TYPHIMURIUM, Strain/Indicator: TA98, Metabolic Activation: RAT LIVER S-9, AROCLOR 1254, Method: FLUCTUATION (MICROTITER)) was “active; positive”. The mutagenic call (Test System: AMES SALMONELLA TYPHIMURIUM, Strain/Indicator: TA98, Metabolic Activation: RAT, LIVER, S-9, AROCLOR 1254 (10%), Method: PREINCUBATION) was “inactive; negative”, the mutagenic call (Test System: AMES SALMONELLA TYPHIMURIUM, Strain/Indicator: TA98, Metabolic Activation: RAT, LIVER, S-9, AROCLOR 1254 (30%), Method: PREINCUBATION) was “active; positive” and the mutagenic call (Test System: AMES SALMONELLA TYPHIMURIUM, Strain/Indicator: TA98, Metabolic Activation: RAT, LIVER, S-9, AROCLOR 1254, Method: STANDARD PLATE) was “active; positive”. For the same compound, the mutagenic call (Test System: AMES SALMONELLA TYPHIMURIUM, Strain/Indicator: TA98, Metabolic Activation: RAT, LIVER, S-9, KC500 OR PHENOBARBITAL, Method: LIQUID SUSPENSION) was “active; positive”, the mutagenic call (Test System: AMES SALMONELLA TYPHIMURIUM, Strain/Indicator: TA98, Metabolic Activation: RAT, LIVER, S-9, Method: PREINCUBATION) was “active; positive” and the mutagenic call (Test System: AMES SALMONELLA TYPHIMURIUM, Strain/Indicator: TA100, Metabolic Activation: HAMSTER, LIVER, S-9, AROCLOR 1254 (10%), Method: PREINCUBATION) was “active; positive”. The mutagenic call (Test System: AMES SALMONELLA TYPHIMURIUM, Strain/Indicator: TA100, Metabolic Activation: HAMSTER, LIVER, S-9, AROCLOR 1254 (30%), Method: PREINCUBATION) was “inactive; negative”, the mutagenic call (Test System: AMES SALMONELLA TYPHIMURIUM, Strain/Indicator: TA100, Metabolic Activation: NONE, Method: PREINCUBATION) was “inactive; negative” and the mutagenic call (Test System: AMES SALMONELLA TYPHIMURIUM, Strain/Indicator: TA100, Metabolic Activation: NONE, Method: STANDARD PLATE) was “inactive; negative”. The mutagenic call (Test System: AMES SALMONELLA TYPHIMURIUM, Strain/Indicator: TA100, Metabolic Activation: RAT, LIVER, S-9, AROCLOR 1254 (5%, 10% OR 20%), Method: STANDARD PLATE) was “active; positive”, the mutagenic call (Test System: AMES SALMONELLA TYPHIMURIUM, Strain/Indicator: TA100, Metabolic Activation: RAT, LIVER, S-9, AROCLOR 1254 (10% OR 20%), Method: STANDARD PLATE) was “active; positive” and the mutagenic call (Test System: AMES SALMONELLA TYPHIMURIUM, Strain/Indicator: TA100, Metabolic Activation: RAT, LIVER, S-9, AROCLOR 1254 (10%), Method: PREINCUBATION) was “active; positive”. The mutagenic call (Test System: AMES SALMONELLA TYPHIMURIUM, Strain/Indicator: TA100, Metabolic Activation: RAT, LIVER, S-9, AROCLOR 1254 (30%), Method: PREINCUBATION) was “active; positive”, the mutagenic call (Test System: AMES SALMONELLA TYPHIMURIUM, Strain/Indicator: TA100, Metabolic Activation: RAT, LIVER, S-9, AROCLOR 1254, Method: STANDARD PLATE) was “active; positive” and the mutagenic call (Test System: AMES SALMONELLA TYPHIMURIUM, Strain/Indicator: TA100, Metabolic Activation: RAT, LIVER, S-9, KC500 OR PHENOBARBITAL, Method: LIQUID SUSPENSION) was “active; positive”. The mutagenic call (Test System: AMES SALMONELLA TYPHIMURIUM, Strain/Indicator: TA100, Metabolic Activation: RAT, LIVER, S-9, Method: PREINCUBATION) was “active; positive”, the mutagenic call (Test System: AMES SALMONELLA TYPHIMURIUM, Strain/Indicator: TA100, Metabolic Activation: S-9, Method: PREINCUBATION) was “active; positive” and the mutagenic call (Test System: AMES SALMONELLA TYPHIMURIUM, Strain/Indicator: TA1535, Metabolic Activation: HAMSTER, LIVER, S-9, AROCLOR 1254 (10%), Method: PREINCUBATION) was “inactive; negative”. For the same compound, the mutagenic call (Test System: AMES SALMONELLA TYPHIMURIUM, Strain/Indicator: TA1535, Metabolic Activation: NONE, Method: PREINCUBATION) was “inactive; negative”, the mutagenic call (Test System: AMES SALMONELLA TYPHIMURIUM, Strain/Indicator: TA1535, Metabolic Activation: RAT, LIVER, S-9, AROCLOR 1254 (10%), Method: PREINCUBATION) was “inactive; negative” and the mutagenic call (Test System: AMES SALMONELLA TYPHIMURIUM, Strain/Indicator: TA1535, Metabolic Activation: RAT, LIVER, S-9, AROCLOR 1254, Method: STANDARD PLATE) was “active; positive”. The mutagenic call (Test System: AMES SALMONELLA TYPHIMURIUM, Strain/Indicator: TA1537, Metabolic Activation: NONE, Method: FLUCTUATION (MICROTITER)) was “inactive; negative”, the mutagenic call (Test System: AMES SALMONELLA TYPHIMURIUM, Strain/Indicator: TA1537, Metabolic Activation: RAT LIVER S-9, AROCLOR 1254, Method: FLUCTUATION (MICROTITER)) was “active; positive” and the mutagenic call (Test System: AMES SALMONELLA TYPHIMURIUM, Strain/Indicator: TA1537, Metabolic Activation: RAT, LIVER, S-9, AROCLOR 1254, Method: STANDARD PLATE) was “active; positive”. For the same compound, the mutagenic call (Test System: AMES SALMONELLA TYPHIMURIUM, Strain/Indicator: TA7001, Metabolic Activation: NONE, Method: FLUCTUATION (MICROTITER)) was “inactive; negative”, the mutagenic call (Test System: AMES SALMONELLA TYPHIMURIUM, Strain/Indicator: TA7001, Metabolic Activation: RAT LIVER S-9, AROCLOR 1254, Method: FLUCTUATION (MICROTITER)) was “inactive; negative” and the mutagenic call (Test System: AMES SALMONELLA TYPHIMURIUM, Strain/Indicator: TA7002, Metabolic Activation: NONE, Method: FLUCTUATION (MICROTITER)) was “inactive; negative”. The mutagenic call (Test System: AMES SALMONELLA TYPHIMURIUM, Strain/Indicator: TA7002, Metabolic Activation: RAT LIVER S-9, AROCLOR 1254, Method: FLUCTUATION (MICROTITER)) was “active; positive”, the mutagenic call (Test System: AMES SALMONELLA TYPHIMURIUM, Strain/Indicator: TA7003, Metabolic Activation: NONE, Method: FLUCTUATION (MICROTITER)) was “inactive; negative” and the mutagenic call (Test System: AMES SALMONELLA TYPHIMURIUM, Strain/Indicator: TA7003, Metabolic Activation: RAT LIVER S-9, AROCLOR 1254, Method: FLUCTUATION (MICROTITER)) was “inactive; negative”. For the same compound, the mutagenic call (Test System: AMES SALMONELLA TYPHIMURIUM, Strain/Indicator: TA7004, Metabolic Activation: NONE, Method: FLUCTUATION (MICROTITER)) was “inactive; negative”, the mutagenic call (Test System: AMES SALMONELLA TYPHIMURIUM, Strain/Indicator: TA7004, Metabolic Activation: RAT LIVER S-9, AROCLOR 1254, Method: FLUCTUATION (MICROTITER)) was “inactive; negative” and the mutagenic call (Test System: AMES SALMONELLA TYPHIMURIUM, Strain/Indicator: TA7005, Metabolic Activation: NONE, Method: FLUCTUATION (MICROTITER)) was “inactive; negative”. The mutagenic call (Test System: AMES SALMONELLA TYPHIMURIUM, Strain/Indicator: TA7005, Metabolic Activation: RAT LIVER S-9, AROCLOR 1254, Method: FLUCTUATION (MICROTITER)) was “active; positive”, the mutagenic call (Test System: AMES SALMONELLA TYPHIMURIUM, Strain/Indicator: TA7006, Metabolic Activation: NONE, Method: FLUCTUATION (MICROTITER)) was “inactive; negative” and the mutagenic call (Test System: AMES SALMONELLA TYPHIMURIUM, Strain/Indicator: TA7006, Metabolic Activation: RAT LIVER S-9, AROCLOR 1254, Method: FLUCTUATION (MICROTITER)) was “inactive; negative”. For the same compound, the mutagenic call (Test System: UDS RODENT HEPATOCYTES, Strain/Indicator: THY INCORP (NON-S-PHASE), Metabolic Activation: IN VIVO, Method: AUTORADIOGRAPHY) was “inactive; negative”.
